Experiments:
[1] = tested on: pro-inflammatory cytokines IL-1α, IL-1β, IL-6, and TNF-α; test: Quantification of pro-inflammatory cytokines in serum of aging mice using ELISA Array kit; type: in vivo; details: serum of 56-week-old mice, EGT compared to without EGT treatment, FIG. 2
Description: 18 […]/6 male mice aged about 8 weeks, were randomly assigned to three study groups (GA, GB, GC). The total experimental time was 56 weeks, and the control group was consisted of 12 animals, and all of the animals were maintained in an animal facility room under controlled environmental conditions (22±1° C., 12 h-light/12 h dark cycle, free access to food and water). All procedures were carried out in accordance with institutional policies on experimental animal handling. Treatment details of the individual study groups were: Group A (GA): euthanized at the age of 10 weeks; Group B (GB): euthanized at the age of 56 weeks without EGT treated; Group C (GC): euthanized at the age of 56 weeks with EGT treated every day.

[2] = tested on: lamin A; test: Taqman quantitative real-time PCR of lamin A mRNA in coronary artery endothelial cells of aging mice; type: in vivo; details: 56-week-old mice treated with EGT every day, compared to without EGT treated; FIG. 1
Description: (§1) 18 […]/6 male mice aged about 8 weeks, were randomly assigned to three study groups (GA, GB, GC). The total experimental time was 56 weeks, and the control group was consisted of 12 animals, and all of the animals were maintained in an animal facility room under controlled environmental conditions (22±1° C., 12 h-light/12 h dark cycle, free access to food and water). All procedures were carried out in accordance with institutional policies on experimental animal handling. Treatment details of the individual study groups were: Group A (GA): euthanized at the age of 10 weeks; Group B (GB): euthanized at the age of 56 weeks without EGT treated; Group C (GC): euthanized at the age of 56 weeks with EGT treated every day. For all the euthanized mice, formalin-fixed paraffin embedded 3 μm sections were prepared from the tissues of coronary artery, and were snap-frozen and stored at -80° C. Taqman quantitative real-time PCR was used for detection of progerin mRNA. Messenger RNA was extracted using RNeasy Mini Kit Plus (Qiagen, Valencia, CA). The Taqman probe was as described by Rodriguez et al. (Rodriguez, S., et al., Increased expression of the Hutchinson Gilford progeria syndrome truncated lamin A transcript during cell aging. 2009. 17(7): p. 928-937). The forward primer was [NT] ID NO: 1), and the reverse primer was [NT] ID NO: 2).

[3] = tested on: lamin C; test: Taqman quantitative real-time PCR of lamin C mRNA in coronary artery endothelial cells of aging mice; type: in vivo; details: 56-week-old mice treated with EGT every day, compared to without EGT treated; FIG. 1
[4] = tested on: progerin; test: Taqman quantitative real-time PCR of progerin mRNA in coronary artery endothelial cells of aging mice; type: in vivo; details: 56-week-old mice treated with EGT every day, compared to without EGT treated; FIG. 1
Description: as §1

[5] = tested on: vascular and intracellular adhesion molecules in endothelial cells; details: Anticoli et al. 2010; cited from earlier work

For `C[N+](C)(C)[C@@H](Cc1c[nH]c(=S)[nH]1)C(=O)[O-]` [EGT, Ergothioneine], the “pro-inflammatory cytokines (IL-1α, IL-1β, IL-6, TNF-α)” value [1] was “obvious decrease”, the “mRNA of lamin A in coronary artery endothelial cells” value [2] was “decrease” and the “mRNA of lamin C in coronary artery endothelial cells” value [3] was “decrease”. For the same compound, the “mRNA expression of progerin in coronary artery endothelial cells” value [4] was “obvious decrease” and the “IL-1β-induced expression of vascular and intracellular adhesion molecules” value [5] was “inhibit”.

From patent publication US20250360105A1, “USE OF ERGOTHIONEINE FOR ANTI-AGING” (NANJING NUTRABUILDING BIO-TECH CO., LTD., priority 2022, published 2025)
